# Results as given in US8349867B2, “Quinoline compounds, intermediates, preparation methods and uses thereof” (Shanghai Institute of Pharmaceutical Industry, priority 2006, dated 2013).
row,SMILES,melting point
1,CC(C)c1ccc(Sc2cc3ncc(/C=C/[C@@H]4C[C@@H](O)CC(=O)O4)c(Sc4ccc(C(C)C)cc4)c3cc2Sc2ccc(C(C)C)cc2)cc1 [Compound A32],182 to 184 °C
2,COc1cccc(Sc2cc3ncc(/C=C/[C@@H]4C[C@@H](O)CC(=O)O4)c(Sc4cccc(OC)c4)c3cc2Sc2cccc(OC)c2)c1 [Compound A31],57 to 59 °C

# Continued, values first:
row,melting point,SMILES
1,130 to 132 °C,O=C1C[C@H](O)C[C@@H](/C=C/c2cnc3ccccc3c2Sc2ccc(F)cc2)O1 [Compound A2]
2,175 to 177 °C,CC(C)c1ccc(Sc2c(/C=C/[C@@H]3C[C@@H](O)CC(=O)O3)cnc3cc(Cl)c(F)cc23)cc1 [Compound A12]
3,147 to 148 °C,CC(C)c1ccc(Sc2c(/C=C/[C@@H]3C[C@@H](O)CC(=O)O3)cnc3ccccc23)cc1 [Compound A4]
